Experiments:
GLP-1 receptor = biological target: T1, GLP-1 receptor (Homo sapiens, UniProt P43220); test: GLP-1 activity assay (cAMP HTRF); assay type: cell-based; conditions: U20S-GLP-1R stable transfected cell line, 30 minutes at 37°C
T1 construct: expressed in transfected cells
Method: The agonistic effect of the test substance on the GLP-1 receptor was determined using a U20S-GLP-1R stable transfected cell line and a HTRF detection method.
• 1. According to the experimental procedure of the cAMP-Gs Dynamic HTRF kit, the 5x Stimulation buffer (SB) provided in the kit was diluted to 1xSB with ddH2O. IBMX was added to the 1xSB solution to a final concentration of 500 µM to prevent degradation of cAMP. Then, a working solution of the test substance was prepared using 1xSB and subjected to a series of gradient dilutions. • 2. U2OS-GLP-1R cells were digested and collected. After resuspending and counting, the cell density was diluted to 2x10^6 cells/mL using 1xSB solution. Then, 5 µL per well was seeded into a 384-well cell culture plate, resulting in 10,000 cells per well. • 3. The test substances were added at different concentrations into the corresponding cell wells at 5 µL per well, and incubated in a 37°C incubator for 30 minutes. • 4. According to the steps provided by the cAMP-Gs Dynamic HTRF kit, cAMP standard solutions of different concentrations were prepared and added into the 384-well plate. • 5. The cAMP d2 reagent and Eu Cryptate antibody provided in the kit were diluted to 1x using Lysis & Detection Buffer. Then, d2 and Eu solutions were added to the 384-well plate, 5 µL each well. After incubation at room temperature for 2 hours, the plate was read using the HTRF module (665/620 nm) of a microplate reader, and experimental data was collected. • 6. A curve was plotted using the signal value versus the compound concentration. Curve fitting and EC50 calculation were performed using nonlinear regression of GraphPad Prism software. […] Table 2: GLP-1 Activity of the compounds

[1] = Pharmacokinetic experiment in rats; assay type: in vivo; conditions: rat, plasma; SD rats, male, intravenous, 0.2 mg/kg, sampling to 72 hours
Method: Dulbecco's phosphate buffered saline (DPBS) (Batch No.: F2326001, Shanghai Aladdin Biochemical Technology Co., Ltd.). LC-MS instrument (Thermo TSQ Altis Plus).
SD rats: Male, 180-250g, purchased from Guangdong Vital River Laboratory Animal Technology Co., Ltd.
The test sample powder was accurately weighed and completely dissolved in Dulbecco's phosphate buffered saline free of Ca^2+/Mg^2+, mixed well to obtain a 0.1 mg/mL solution, and administered intravenously at a dose of 2 mL/kg.
After intravenous administration to the rats, approximately 200 µL of venous blood was collected into EDTA-K2 anticoagulant-coated EP tubes pre-dose and post-dose at 0, 0.5, 2, 5, 24, 48, and 72 hours . The blood was centrifuged at 12,000 rpm for 2 minutes. The plasma was collected and stored frozen at -20°C until analysis.
A certain amount of the test sample was accurately weighed and dissolved in DMSO to prepare a 2 mg/mL stock solution. An appropriate amount of the compound stock solution was accurately pipetted and diluted with an acetonitrile-aqueous solution (ACN:H2O=1:1) to prepare a series of standard solutions. […]
After determining the plasma drug concentration by LC-MS, the pharmacokinetic parameters in rats post-administration were calculated using a non-compartmental model with WinNonlin 6.1 software.

T1 sequence (P43220 24-463, species assumed): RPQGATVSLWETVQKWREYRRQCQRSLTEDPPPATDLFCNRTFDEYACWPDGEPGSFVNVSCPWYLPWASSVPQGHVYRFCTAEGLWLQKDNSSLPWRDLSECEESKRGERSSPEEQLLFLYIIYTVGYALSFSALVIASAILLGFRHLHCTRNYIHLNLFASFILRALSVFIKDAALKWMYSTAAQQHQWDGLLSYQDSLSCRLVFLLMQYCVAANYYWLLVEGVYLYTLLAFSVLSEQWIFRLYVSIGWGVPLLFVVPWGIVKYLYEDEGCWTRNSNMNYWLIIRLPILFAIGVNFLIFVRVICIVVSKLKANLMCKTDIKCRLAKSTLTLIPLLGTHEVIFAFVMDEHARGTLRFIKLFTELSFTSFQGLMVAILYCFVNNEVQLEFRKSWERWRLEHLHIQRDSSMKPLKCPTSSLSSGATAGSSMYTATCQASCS

EC50 (GLP-1 receptor)	AUC(0-t) [1]	SMILES
0.0157 µM		CC[C@H](C)[C@H](NC(=O)[C@H](Cc1ccccc1)NC(=O)[C@H](CCC(=O)O)NC(=O)[C@H](CCCCNC(=O)COCCOCCNC(=O)COCCOCCNC(=O)CC[C@H](NC(=O)CCCCCCCCCCCCCCCCC(=O)O)C(=O)O)NC(=O)[C@H](C)NC(=O)[C@H](C)NC(=O)[C@H](CCC(N)=O)NC(=O)CNC(=O)[C@H](CCC(=O)O)NC(=O)[C@H](CC(C)C)NC(=O)[C@H](Cc1ccc(O)cc1)NC(=O)[C@H](CO)NC(=O)[C@H](CO)NC(=O)[C@@H](NC(=O)[C@H](CC(=O)O)NC(=O)[C@H](CO)NC(=O)[C@@H](NC(=O)[C@H](Cc1ccccc1)NC(=O)[C@@H](NC(=O)CNC(=O)[C@H](CCC(=O)O)NC(=O)C(C)(C)NC(=O)[C@H](Cc1c[nH]cn1)NC(=O)CN(CCOCCOCCNC(=O)CC[C@H](NC(=O)CCCCCCCCCCCCCCC(=O)O)C(=O)O)C(=O)CN)[C@@H](C)O)[C@@H](C)O)C(C)C)C(=O)N[C@@H](C)C(=O)N[C@@H](Cc1c[nH]c2ccccc12)C(=O)N[C@@H](CC(C)C)C(=O)N[C@H](C(=O)N[C@@H](CCCNC(=N)N)C(=O)NCC(=O)N[C@@H](CCCNC(=N)N)C(=O)NCC(=O)O)C(C)C [Example 3]
0.0169 µM		CC[C@H](C)[C@H](NC(=O)[C@H](Cc1ccccc1)NC(=O)[C@H](CCC(=O)O)NC(=O)[C@H](CCCCNC(=O)COCCOCCNC(=O)COCCOCCNC(=O)CC[C@H](NC(=O)CCCCCCCCCCCCCCCCC(=O)O)C(=O)O)NC(=O)[C@H](C)NC(=O)[C@H](C)NC(=O)[C@H](CCC(N)=O)NC(=O)CNC(=O)[C@H](CCC(=O)O)NC(=O)[C@H](CC(C)C)NC(=O)[C@H](Cc1ccc(O)cc1)NC(=O)[C@H](CO)NC(=O)[C@H](CO)NC(=O)[C@@H](NC(=O)[C@H](CC(=O)O)NC(=O)[C@H](CO)NC(=O)[C@@H](NC(=O)[C@H](Cc1ccccc1)NC(=O)[C@@H](NC(=O)CNC(=O)[C@H](CCC(=O)O)NC(=O)C(C)(C)NC(=O)[C@H](Cc1c[nH]cn1)NC(=O)CN(CCOCCOCCNC(=O)C[C@H](NC(=O)CCCCCCCCCCCCCCC(=O)O)C(=O)O)C(=O)CN)[C@@H](C)O)[C@@H](C)O)C(C)C)C(=O)N[C@@H](C)C(=O)N[C@@H](Cc1c[nH]c2ccccc12)C(=O)N[C@@H](CC(C)C)C(=O)N[C@H](C(=O)N[C@@H](CCCNC(=N)N)C(=O)NCC(=O)N[C@@H](CCCNC(=N)N)C(=O)NCC(=O)O)C(C)C [Example 4]
0.0093 µM	101 µg·h/mL	CC[C@H](C)[C@H](NC(=O)[C@H](Cc1ccccc1)NC(=O)[C@H](CCC(=O)O)NC(=O)[C@H](CCCCNC(=O)COCCOCCNC(=O)COCCOCCNC(=O)CC[C@H](NC(=O)CCCCCCCCCCCCCCCCC(=O)O)C(=O)O)NC(=O)[C@H](C)NC(=O)[C@H](C)NC(=O)[C@H](CCC(N)=O)NC(=O)CNC(=O)[C@H](CCC(=O)O)NC(=O)[C@H](CC(C)C)NC(=O)[C@H](Cc1ccc(O)cc1)NC(=O)[C@H](CO)NC(=O)[C@H](CO)NC(=O)[C@@H](NC(=O)[C@H](CC(=O)O)NC(=O)[C@H](CO)NC(=O)[C@@H](NC(=O)[C@H](Cc1ccccc1)NC(=O)[C@@H](NC(=O)CNC(=O)[C@H](CCC(=O)O)NC(=O)C(C)(C)NC(=O)[C@H](Cc1c[nH]cn1)NC(=O)CN(CCNC(=O)C[C@H](NC(=O)CCCCCCCCCCCCCCC(=O)O)C(=O)O)C(=O)CN)[C@@H](C)O)[C@@H](C)O)C(C)C)C(=O)N[C@@H](C)C(=O)N[C@@H](Cc1c[nH]c2ccccc12)C(=O)N[C@@H](CC(C)C)C(=O)N[C@H](C(=O)N[C@@H](CCCNC(=N)N)C(=O)NCC(=O)N[C@@H](CCCNC(=N)N)C(=O)NCC(=O)O)C(C)C [Example 2]
0.0057 µM	99.3 µg·h/mL	CC[C@H](C)[C@H](NC(=O)[C@H](Cc1ccccc1)NC(=O)[C@H](CCC(=O)O)NC(=O)[C@H](CCCCNC(=O)COCCOCCNC(=O)COCCOCCNC(=O)CC[C@H](NC(=O)CCCCCCCCCCCCCCCCC(=O)O)C(=O)O)NC(=O)[C@H](C)NC(=O)[C@H](C)NC(=O)[C@H](CCC(N)=O)NC(=O)CNC(=O)[C@H](CCC(=O)O)NC(=O)[C@H](CC(C)C)NC(=O)[C@H](Cc1ccc(O)cc1)NC(=O)[C@H](CO)NC(=O)[C@H](CO)NC(=O)[C@@H](NC(=O)[C@H](CC(=O)O)NC(=O)[C@H](CO)NC(=O)[C@@H](NC(=O)[C@H](Cc1ccccc1)NC(=O)[C@@H](NC(=O)CNC(=O)[C@H](CCC(=O)O)NC(=O)C(C)(C)NC(=O)[C@H](Cc1c[nH]cn1)NC(=O)CN(CCNC(=O)CC[C@H](NC(=O)CCCCCCCCCCCCCCC(=O)O)C(=O)O)C(=O)[C@@H]1CCCN1)[C@@H](C)O)[C@@H](C)O)C(C)C)C(=O)N[C@@H](C)C(=O)N[C@@H](Cc1c[nH]c2ccccc12)C(=O)N[C@@H](CC(C)C)C(=O)N[C@H](C(=O)N[C@@H](CCCNC(=N)N)C(=O)NCC(=O)N[C@@H](CCCNC(=N)N)C(=O)NCC(=O)O)C(C)C [Example 17]

Source: EP4806909A1, “GLP-1 COMPOUND, AND PREPARATION METHOD THEREFOR AND USE THEREOF” (Shenzhen Salubris Pharmaceuticals Co., Ltd., priority 2023, dated 2025)
